Among the test systems are 786-0 renal; COLO 205 colon; HS 578T breast; K-562 leukemia; MCF7 breast; OVCAR-4 ovarian; RXF 393 renal; SF-295 CNS; SF-539 CNS; SR leukemia.
Common to all, as to experiment: NCI tumour cell line growth inhibition, 48 h

This note sets out measurements from PubChem BioAssay (NCI).

“And” between values parts separate entries of the source, which are not always exact repeats. Equal entries are not always repeated.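 Dose response: 5 concentrations. Exposure: 48 h. Format: 96-well plates. Endpoint: linear interpolation; highest concentration if not reached. GI50 is the concentration that inhibits growth by half. TGI marks complete inhibition of growth.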 Where only a bound is given, the exact number is not on record here.

For the molecule `CC(=O)Nc1c(I)c(C(=O)O)c(I)c(N(C)C(C)=O)c1I`, the GI50 was greater than 100000 nM in the assay with 786-0 renal; greater than 100000 nM in the assay with COLO 205 colon; 46400 nM in the assay with HS 578T breast; greater than 100000 nM with K-562 leukemia; greater than 100000 nM with MCF7 breast; greater than 100000 nM in the assay on OVCAR-4 ovarian. The GI50 in the assay on RXF 393 renal, in the assay on SF-295 CNS, in the assay on SF-539 CNS and in the assay with SR leukemia was greater than 100000 nM each time. In addition, the TGI in the assay on 786-0 renal, in the assay on COLO 205 colon, in the assay on HS 578T breast, in the assay with K-562 leukemia, in the assay with MCF7 breast and in the assay on OVCAR-4 ovarian was greater than 100 µM in each case. For the same molecule, the TGI in the assay with RXF 393 renal, with SF-295 CNS, in the assay on SF-539 CNS and in the assay on SR leukemia was greater than 100 µM throughout.

Consider `O=C(O)CC1C(=O)OC2C3COC(=O)c4cc(O)c(O)c(O)c4-c4c(cc(O)c(O)c4O)C(=O)OC2C(OC(=O)c2cc(O)c(O)c4c2C1C(O)C(=O)O4)C(OC(=O)c1cc(O)c(O)c(O)c1)O3` (centres undefined), for which the TGI in the assay on 786-0 renal was 56.5 µM; in the assay with COLO 205 colon it was greater than 100 µM; with HS 578T breast, greater than 100 µM; in the assay with K-562 leukemia, greater than 100 µM; in the assay on MCF7 breast it was 40.6 µM; in the assay with OVCAR-4 ovarian it was greater than 100 µM. Also, the TGI is greater than 100 µM with RXF 393 renal, greater than 100 µM with SF-295 CNS, greater than 100 µM in the assay on SF-539 CNS and 75.8 µM in the assay on SR leukemia.

Consider `O=S1CCN(Cc2ccc(-c3ccc4ncnc(Nc5ccc(OCc6ccccc6)c(F)c5)c4c3)o2)CC1`, for which the GI50 in the assay with 786-0 renal was 6590 nM; in the assay with COLO 205 colon, 4420 nM; in the assay with HS 578T breast, 8890 nM; in the assay with K-562 leukemia, 11900 nM; in the assay on MCF7 breast, 6890 nM; in the assay with OVCAR-4 ovarian, 5750 nM. Besides, the GI50 was 4450 nM in the assay with RXF 393 renal, 7630 nM in the assay on SF-295 CNS, 5840 nM in the assay with SF-539 CNS and 9290 nM in the assay with SR leukemia. Besides, the TGI is 18.6 µM in the assay with 786-0 renal; 10.6 µM with COLO 205 colon; greater than 25 µM in the assay on HS 578T breast; greater than 25 µM with K-562 leukemia; greater than 16.5 µM in the assay with MCF7 breast; greater than 25 µM in the assay on OVCAR-4 ovarian. Further, the TGI is 13.2 µM with RXF 393 renal, greater than 22.1 µM in the assay on SF-295 CNS, 15.1 µM with SF-539 CNS and greater than 25 µM with SR leukemia.

For `O=C1c2ccccc2C(=O)c2c(NCCNCCO)ccc(NCCNCCO)c21`, the GI50 with 786-0 renal is 757 nM and 1690 nM and 1180 nM; in the assay with COLO 205 colon, 1010 nM and 1270 nM and 724 nM; with HS 578T breast, 333 nM and 208 nM and 1220 nM; with K-562 leukemia, 2470 nM and 2080 nM and 2380 nM; with MCF7 breast, 47.9 nM and 69.6 nM and 69 nM; in the assay on OVCAR-4 ovarian it was 896 nM and 1130 nM and 986 nM. In addition, the GI50 in the assay with RXF 393 renal was 322 nM and 2430 nM and 1920 nM; in the assay with SF-295 CNS, 416 nM and 655 nM and 890 nM; in the assay on SF-539 CNS, 864 nM and 1040 nM and 947 nM; in the assay on SR leukemia it was 1490 nM and 492 nM and 267 nM. Further, the TGI with 786-0 renal was 4.66 µM and 14.3 µM and 12.9 µM; in the assay on COLO 205 colon it was 3 µM and 5.1 µM and 2.64 µM; in the assay with HS 578T breast, 2.49 µM and 4.02 µM and 5.69 µM; with K-562 leukemia it was > 32.1 µM and 33.3 µM and 11.4 µM; in the assay with MCF7 breast, 0.948 µM and 2.39 µM and 4.99 µM; with OVCAR-4 ovarian, 4.87 µM and 4.02 µM and 4.54 µM. In addition, the TGI in the assay with RXF 393 renal was 2 µM and 10.8 µM and 7.68 µM; in the assay with SF-295 CNS, 4.47 µM and 9.66 µM and 9.97 µM; with SF-539 CNS, 3.42 µM and 6.7 µM and 4.07 µM; in the assay with SR leukemia, 13.2 µM and 36.8 µM.

For `Cc1ccn2c(-c3csc(Nc4cccc(O)c4)n3)c(C)nc2c1`, the GI50 is 1800 nM with 786-0 renal; 11800 nM with COLO 205 colon; 1170 nM in the assay with HS 578T breast; 196 nM in the assay on K-562 leukemia; 311 nM in the assay on MCF7 breast; 2430 nM with OVCAR-4 ovarian. For the same molecule, the GI50 is 1270 nM in the assay on RXF 393 renal, 2340 nM in the assay with SF-295 CNS, 498 nM with SF-539 CNS and 200 nM with SR leukemia. Moreover, the TGI in the assay on 786-0 renal was 8.81 µM; in the assay on COLO 205 colon, 26.3 µM; in the assay on HS 578T breast, 29.3 µM; in the assay with K-562 leukemia, greater than 38.2 µM; in the assay with MCF7 breast, 27.3 µM; with OVCAR-4 ovarian, 53.2 µM. The results for the TGI in the assay with RXF 393 renal, in the assay with SF-295 CNS and in the assay with SF-539 CNS were 7.26 µM, 11.9 µM and 3.75 µM, respectively.

With `CCOC(=O)c1c(C(F)(F)F)n([O-])c2ccc(Cl)cc2[n+]1=O`, the GI50 in the assay on 786-0 renal is 2110 nM; with COLO 205 colon it was 1650 nM; in the assay with HS 578T breast, 2170 nM; with K-562 leukemia it was 2200 nM; in the assay on MCF7 breast it was 1980 nM; with OVCAR-4 ovarian, 2160 nM. Moreover, the GI50 was 1820 nM in the assay on RXF 393 renal, 1240 nM in the assay on SF-295 CNS, 1740 nM with SF-539 CNS and 1550 nM with SR leukemia. Besides, the TGI came to 3.71 µM in the assay with 786-0 renal; 3.29 µM with COLO 205 colon; 5.13 µM with HS 578T breast; 4.37 µM in the assay on K-562 leukemia; 4.24 µM with MCF7 breast; 5.73 µM in the assay with OVCAR-4 ovarian. Also, the TGI was found to be 3.77 µM with RXF 393 renal, 2.83 µM with SF-295 CNS, 3.21 µM with SF-539 CNS and 4.35 µM in the assay with SR leukemia.

Regarding `Cc1cc(NS(=O)(=O)c2ccc(NC(=O)COc3ccc(-c4cc5ccccc5[nH]4)cc3)cc2)no1`, the GI50 with 786-0 renal is 1930 nM; in the assay on COLO 205 colon, 1780 nM; with HS 578T breast, 1980 nM; in the assay on K-562 leukemia it was 2060 nM; with MCF7 breast, 2080 nM; in the assay with OVCAR-4 ovarian, 1530 nM. Besides, the GI50 in the assay on RXF 393 renal is 1240 nM; in the assay on SF-295 CNS, 1940 nM; in the assay with SF-539 CNS, 1980 nM; in the assay with SR leukemia, 1670 nM. Also, the TGI in the assay on 786-0 renal is 3.65 µM; with COLO 205 colon, 3.27 µM; in the assay on HS 578T breast, 4.98 µM; with K-562 leukemia, greater than 100 µM; in the assay with MCF7 breast it was 4.69 µM; with OVCAR-4 ovarian, 3.98 µM. The TGI in the assay with RXF 393 renal is 2.6 µM; in the assay with SF-295 CNS, 4.91 µM; in the assay on SF-539 CNS, 4.61 µM; with SR leukemia, greater than 100 µM.

For the molecule `O=S(=O)(CC(O)C(Cl)(Cl)Cl)NNc1ccccc1` (centres undefined), the TGI in the assay with 786-0 renal, in the assay with COLO 205 colon, in the assay on HS 578T breast, in the assay with K-562 leukemia, with MCF7 breast and in the assay with OVCAR-4 ovarian was greater than 100 µM in each case. The TGI in the assay on RXF 393 renal, in the assay on SF-295 CNS, with SF-539 CNS and with SR leukemia was greater than 100 µM in each case.

In the case of `O=C(O)CN(CC(=O)O)c1ccccc1`, the TGI in the assay with 786-0 renal, in the assay on COLO 205 colon, in the assay with HS 578T breast, in the assay on K-562 leukemia, in the assay on MCF7 breast and in the assay on OVCAR-4 ovarian was greater than 100 µM throughout. Further, the TGI in the assay with RXF 393 renal, in the assay with SF-295 CNS, in the assay with SF-539 CNS and in the assay with SR leukemia was greater than 100 µM in each case.
